US7084270B2, “Pyrimido compounds having antiproliferative activity” (Hoffman-La Roche Inc., priority 2002, dated 2006)
pIC50: −log10 of the molar value. Read-outs that look alike come from different tables or passages of the source.

Assays:
KDR = molecular target: T1, KDR (Homo sapiens, UniProt P35968); assay: KDR kinase HTRF assay; assay type: biochemical; conditions: enzyme inhibition, 0.3 mM ATP
T1 construct: EEE-tag
Method: (§1) To determine inhibition of KDR, FGFR, EGFR, and PDGFR activity, kinase assays were conducted using an HTRF (Homogeneous Time Resolved Fluorescence) assay. This assay is described in A. J. Kolb et. al., Drug Discovery Today, 1998, 3(7), p 333.
Prior to kinase reaction, recombinant EEE-tagged KDR was activated in the presence of activation buffer (50 mM HEPES, pH 7.4, 1 mM DTT, 10% glycerol, 150 mM NaCl, 0.1 mM EDTA, 26 mM MgCl2, and 4 mM ATP). The enzyme was incubated at 4° C. for 1 hour.
(§2) Kinase activity assays were performed in 96-well polypropylene plates (Falcon) with a total volume of 90 μL in each well. Each well contained 1 μM KDR substrate (Biotin-EEEEYFELVAKKKK), 1 nM activated KDR, and a test compound with one of 8 assay concentrations ranging from 100 μM to […] (1:5 serial dilution). The kinase activity assay was done in the presence of 100 mM HEPES, pH 7.4, 1 mM DTT, 0.1 mM Na2VO4, 25 mM MgCl2, 50 mM NaCl (from KDR stock solution), 1% DMSO (from compound), 0.3 mM ATP (at Km concentration) and 0.02% BSA. The reaction was incubated at 37° C. for 30 minutes. To stop the KDR reaction, 72 μL of reaction mixture was transferred into a STOP plate containing 18 μL of revelation buffer (20 mM EDTA, 50 mM HEPES, pH 7.4, 0.02% BSA, 10 nM Eu-labelled anti-pY antibody (final conc. 2 nM), and 100 nM streptavidin (final conc. 20 nM)). After mixing, 35 μL of solution was transferred into duplicate wells of a 384-well black plate (Costar), and read at 615/665 nm on a Wallac Victor 5 reader.
(§3) Compound IC50 values were determined from duplicate sets of data, and calculated by using Excel and fitting data to equation Y=[(a−b)/{1+(X/c)^d]+b, where a and b are enzyme activity in the presence of no test inhibitor compound and an infinite amount of inhibitor test compound, respectively, c is the IC50 and d is the hill constant of the compound response. The IC50 value is the concentration of test compound that reduces by 50% the enzyme activity under the test conditions described.

FGFR = molecular target: T2, FGFR; assay: FGFR kinase HTRF assay; assay type: biochemical; conditions: enzyme inhibition, 10 μM ATP
T2 construct: fused on or other part: GST tag
Method: as §1, §2
FGFR, EGFR, and PDGFR activity assays were carried out as described above for the KDR activity assay with the following differences. GST-tagged FGFR enzyme was activated at room temperature for 1 hour in the following activation buffer: 100 mM HEPES, pH 7.4, 50 mM NaCl, 20 mM MgCl2, and 4 mM ATP. […] The rest of the assay was performed in the same manner as KDR assay.
as §3

EGFR = EGFR (Homo sapiens, UniProt P00533); assay: EGFR kinase HTRF assay; assay type: biochemical; conditions: enzyme inhibition, 0.5 μM ATP
Method: as §1, §2
The rest of the assay was performed in the same manner as the KDR assay.
as §3

PDGFR = PDGFR kinase HTRF assay; assay type: biochemical; conditions: enzyme inhibition, 2.3 μM ATP
Method: as §1, §2
The PDGFR kinase activity assay was performed with 1 μM substrate (Biotin-EEEEYFELV), 1.0 nM PDGFR, test compounds, 100 mM HEPES, pH 7.4, 1 mM DTT, 5 mM MgCl2, 2 mM MnCl2, 1% DMSO, 2.3 μM ATP (Km for PDGFR), 0.1 mM Na2VO4, and 0.02% BSA. The rest of the assay was performed in the same manner as the KDR assay.
as §3

[1] = system: Human umbilical vein endothelial cells (HUVEC), VEGF-stimulated; assay: VEGF-stimulated HUVEC proliferation assay (BrdU); assay type: cell-based; conditions: BrdU labeling, VEGF 20 ng per mL, 24 hour exposure, read-out: HUVEC/VEFG IC50
Method: The antiproliferative activity of test compounds of this invention in cell-based assays was evaluated by BrdU assay using the BrdU kit (Roche Biochemicals 1-647-229). Human umbilical vein endothelial cells (Clonetics CC-2519) were cultured in EGM-2 (Clonetics CC-3162) medium and seeded at 10000 cells per well in a volume of 200 μL of EGM-2 (Clonetics CC-3162) media in a 96-well flat bottom plates (Costar 3595) overnight. After 24 hours of growth at 37° C. with 5% CO2, the incubation media was removed slowly by aspiration and the content of each well was washed with 300 μL pre-warmed EBM-2 (Clonetics CC-3156) containing 50 μg per mL of gentamycin and 50 ng per mL of amphotercin-B (Clonetics CC-4083). Subsequently, the remaining media was again aspirated and replaced with 160 μL per well of serum starvation media (EBM-2 supplemented with 1% heat inactivated FBS (Clonetics CC-4102), 50 μg per mL gentamycin and 50 ng per mL of amphotercin-B (Clonetics CC-4083), 10 units per mL of Wyeth-Ayerst heparin (NDC0641-0391-25), and 2 mM L-glutamine (GIBCO 25030-081). After serum starving the cells for 24 hours, 20 μL of test compound at 10× test concentration in serum starvation medium with 2.5% DMSO was added to the appropriate wells. The control wells contained 20 μL of serum starvation medium with 2.5% DMSO. Plates were returned to the incubator for 2 hours. […]
(§4) After 24 hour exposure to the test compounds, the cells were labeled with BrdU (Roche Biochemicals 1-647-229), by adding 20 μL per well of BrdU labeling reagent that has been diluted (1:100) in serum starvation medium. […] The plates were read at 450 nm with reference wavelength of 650 nm. The percent inhibition for each test compound was calculated by subtracting the absorbency of the blank (no cells) wells from all wells, then subtracting the division of the average absorbency of each test duplicate by the average of the controls from 1. […] The IC50 is determined from the linear regression of a plot of the logarithm of the concentration versus percent inhibition.

[2] = system: Human umbilical vein endothelial cells (HUVEC), FGF-stimulated; assay: FGF-stimulated HUVEC proliferation assay (BrdU); assay type: cell-based; conditions: BrdU labeling, FGF 5 ng per mL, 24 hour exposure, read-out: HUVEC/bFGFR IC50
Method: The antiproliferative activity of test compounds of this invention in cell-based assays was evaluated by BrdU assay using the BrdU kit (Roche Biochemicals 1-647-229). Human umbilical vein endothelial cells (Clonetics CC-2519) were cultured in EGM-2 (Clonetics CC-3162) medium and seeded at 10000 cells per well in a volume of 200 μL of EGM-2 (Clonetics CC-3162) media in a 96-well flat bottom plates (Costar 3595) overnight. After 24 hours of growth at 37° C. with 5% CO2, the incubation media was removed slowly by aspiration and the content of each well was washed with 300 μL pre-warmed EBM-2 (Clonetics CC-3156) containing 50 μg per mL of gentamycin and 50 ng per mL of amphotercin-B (Clonetics CC-4083). Subsequently, the remaining media was again aspirated and replaced with 160 μL per well of serum starvation media (EBM-2 supplemented with 1% heat inactivated FBS (Clonetics CC-4102), 50 μg per mL gentamycin and 50 ng per mL of amphotercin-B (Clonetics CC-4083), 10 units per mL of Wyeth-Ayerst heparin (NDC0641-0391-25), and 2 mM L-glutamine (GIBCO 25030-081). After serum starving the cells for 24 hours, 20 μL of test compound at 10× test concentration in serum starvation medium with 2.5% DMSO was added to the appropriate wells. The control wells contained 20 μL of serum starvation medium with 2.5% DMSO. Plates were returned to the incubator for 2 hours. After pre-incubating the cells with the test compounds for 2 hours, 20 μL of growth factors at 10×assay concentration diluted in serum starvation media, FGF at 50 ng per mL, or VEGF (R&D systems 293-VE) at 200 ng per mL were added. The final concentration of FGF in the assay was 5 ng per mL, and the final concentration of VEGF in the assays was 20 ng per mL. The growth factor free control wells had 20 μL per well of serum starvation media with the same amount of BSA as the wells with growth factors. The plates were returned to the incubator for an additional 22 hours.
as §4, with “medium. The plates were then returned to the incubator for 4 hours. The labeling medium was removed by draining the medium onto paper towels.” for “medium.”

Sequence of EGFR (P00533 25-1210, species assumed): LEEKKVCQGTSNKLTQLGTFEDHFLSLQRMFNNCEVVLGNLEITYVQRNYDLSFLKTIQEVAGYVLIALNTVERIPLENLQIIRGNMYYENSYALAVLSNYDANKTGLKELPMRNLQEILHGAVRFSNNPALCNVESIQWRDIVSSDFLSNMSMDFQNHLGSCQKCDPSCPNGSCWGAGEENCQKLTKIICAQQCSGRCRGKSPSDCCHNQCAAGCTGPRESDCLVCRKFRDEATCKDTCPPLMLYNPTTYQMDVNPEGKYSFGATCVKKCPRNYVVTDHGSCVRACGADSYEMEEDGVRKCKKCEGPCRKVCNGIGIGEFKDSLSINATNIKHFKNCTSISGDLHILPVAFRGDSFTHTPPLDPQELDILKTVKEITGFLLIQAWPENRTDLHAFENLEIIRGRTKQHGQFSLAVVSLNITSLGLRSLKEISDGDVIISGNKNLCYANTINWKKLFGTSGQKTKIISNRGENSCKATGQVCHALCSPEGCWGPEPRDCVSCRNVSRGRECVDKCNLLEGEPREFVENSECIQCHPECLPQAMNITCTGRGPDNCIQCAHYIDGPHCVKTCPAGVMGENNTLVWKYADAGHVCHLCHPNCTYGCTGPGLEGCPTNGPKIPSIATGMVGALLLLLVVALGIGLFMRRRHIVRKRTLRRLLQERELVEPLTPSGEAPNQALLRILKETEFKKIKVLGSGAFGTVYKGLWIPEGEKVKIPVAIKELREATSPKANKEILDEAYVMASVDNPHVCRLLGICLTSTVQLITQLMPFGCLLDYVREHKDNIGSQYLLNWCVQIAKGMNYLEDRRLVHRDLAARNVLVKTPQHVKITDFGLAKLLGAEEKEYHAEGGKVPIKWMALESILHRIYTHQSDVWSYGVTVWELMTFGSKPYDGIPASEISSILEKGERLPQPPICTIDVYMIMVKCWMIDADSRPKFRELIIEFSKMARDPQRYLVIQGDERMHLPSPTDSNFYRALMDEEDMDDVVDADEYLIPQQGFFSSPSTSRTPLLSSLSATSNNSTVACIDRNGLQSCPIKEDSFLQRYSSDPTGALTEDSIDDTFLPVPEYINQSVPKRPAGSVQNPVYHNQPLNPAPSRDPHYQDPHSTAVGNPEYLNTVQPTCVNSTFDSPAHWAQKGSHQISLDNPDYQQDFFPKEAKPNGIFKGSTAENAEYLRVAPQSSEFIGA
T1 sequence (P35968 20-1356, species assumed): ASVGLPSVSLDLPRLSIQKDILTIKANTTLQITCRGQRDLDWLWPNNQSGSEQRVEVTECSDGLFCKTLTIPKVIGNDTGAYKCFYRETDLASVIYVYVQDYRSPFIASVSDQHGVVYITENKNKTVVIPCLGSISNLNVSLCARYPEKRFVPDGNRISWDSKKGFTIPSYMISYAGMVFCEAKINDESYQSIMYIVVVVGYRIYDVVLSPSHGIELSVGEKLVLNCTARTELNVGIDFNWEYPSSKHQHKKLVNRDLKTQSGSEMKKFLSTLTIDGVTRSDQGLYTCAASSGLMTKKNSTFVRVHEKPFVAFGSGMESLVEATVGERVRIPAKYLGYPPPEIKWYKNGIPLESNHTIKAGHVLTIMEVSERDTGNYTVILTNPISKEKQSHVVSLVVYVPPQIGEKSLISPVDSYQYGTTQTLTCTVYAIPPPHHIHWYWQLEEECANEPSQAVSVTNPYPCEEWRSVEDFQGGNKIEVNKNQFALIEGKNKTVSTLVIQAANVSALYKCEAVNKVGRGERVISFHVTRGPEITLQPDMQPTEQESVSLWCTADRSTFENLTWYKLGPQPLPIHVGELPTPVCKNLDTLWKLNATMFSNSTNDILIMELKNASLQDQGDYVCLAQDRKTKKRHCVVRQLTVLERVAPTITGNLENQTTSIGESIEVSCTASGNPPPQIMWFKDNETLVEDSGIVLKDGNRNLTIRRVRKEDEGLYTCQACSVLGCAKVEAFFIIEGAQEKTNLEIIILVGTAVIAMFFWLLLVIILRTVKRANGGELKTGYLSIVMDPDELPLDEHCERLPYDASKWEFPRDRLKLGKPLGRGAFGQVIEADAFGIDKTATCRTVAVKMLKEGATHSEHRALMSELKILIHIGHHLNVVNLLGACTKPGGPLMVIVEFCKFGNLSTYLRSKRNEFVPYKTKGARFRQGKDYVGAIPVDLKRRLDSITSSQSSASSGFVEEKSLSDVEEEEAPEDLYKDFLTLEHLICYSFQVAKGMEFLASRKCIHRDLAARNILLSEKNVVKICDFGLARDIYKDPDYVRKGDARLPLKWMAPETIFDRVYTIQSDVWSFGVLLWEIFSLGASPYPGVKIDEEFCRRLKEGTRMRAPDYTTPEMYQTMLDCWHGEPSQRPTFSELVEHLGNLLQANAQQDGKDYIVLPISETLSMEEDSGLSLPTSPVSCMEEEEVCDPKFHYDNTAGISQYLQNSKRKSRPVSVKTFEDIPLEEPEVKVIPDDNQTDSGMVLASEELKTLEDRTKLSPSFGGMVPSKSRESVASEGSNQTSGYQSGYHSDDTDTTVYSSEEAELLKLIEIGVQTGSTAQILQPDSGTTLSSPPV

SMILES	melting point	pIC50 (KDR)	pIC50 (FGFR)	pIC50 (EGFR)	pIC50 (PDGFR)	pIC50 [1]	pIC50 ([2]; Homo sapiens, HUVEC, 24 h)	pIC50 (FGFR; methanesulfonate salt)	pIC50 (PDGFR; methanesulfonate salt)	pIC50 ([2]; methanesulfonate salt)
COc1ccc(N2Cc3cnc(N(C(=O)OCOC(=O)CN(C)C)c4ccccc4)nc3N(c3ccccc3)C2=O)cc1 [Example 5a]	172 °C									
COc1ccc(N2Cc3cnc(Nc4ccc(O)cc4)nc3N(c3ccccc3)C2=O)cc1 [Example 18, 7-[(4-Hydroxyphenyl)amino]-3-(4-methoxyphenyl)-1-phenyl-1,3,4-trihydropyrimidino[4,5-d]pyrimidin-2-one]		7.54	6.96	6.89	7.19	7.20	6.82			
COc1ccc(Nc2ncc3c(n2)N(c2ccccc2)C(=O)N(c2ccc(OC)cc2)C3)cc1 [Example 20, 3-(4-Methoxyphenyl)-7-[(4-methoxyphenyl)amino]-1-phenyl-1,3,4-trihydropyrimidino[4,5-d]pyrimidin-2-one]		7.62	7.04	6.74	7.09	7.02	6.46			
COc1ccc(N2Cc3cnc(Nc4ccccc4)nc3N(c3ccccc3)C2=O)cc1 [Example 1g, 3-(4-Methoxyphenyl)-1-phenyl-7-(phenylamino)-1,3,4-trihydropyrimidino[4,5-d]pyrimidin-2-one]		7.36	6.72	6.44	6.89	6.92	6.51			
COc1ccc(N2Cc3cnc(Nc4ccccc4)nc3N(c3ccccc3)C2=O)cc1.CS(=O)(=O)O [Example 1h, 3-(4-Methoxyphenyl)-1-phenyl-7-(phenylamino)-1,3,4-trihydropyrimidino[4,5-d]pyrimidin-2-one methanesulfonate salt]	245 to 251 °C	7.12		6.46				6.77	6.82	6.37
